Reference: patent publication US20100113517A1, “METHOD FOR THE TREATMENT OF FABRY DISEASE USING PHARMACOLOGICAL CHAPERONES” (AMICUS THERAPEUTICS, INC., priority 2007, published 2010)

Experiments:
[1] = Phase I ascending single oral dose study, safety and tolerability; format: in vivo, healthy volunteers (human); conditions: healthy male subjects, single doses 25 mg through 675 mg
Experimental: Study Design and Duration. […] Dose escalation to the next dose level (i.e., next group) proceeded following review of safety and tolerability of the previous group(s). Subjects were housed in the treatment facility from 14 hours prior to dosing until 24 hours after dosing. Meals were controlled by schedule and subjects remained abulatory for 4 hours post drug administration.
(§1) Safety and Tolerability Assessments.
Statistical Analysis. Safety data including laboratory evaluations, physical exams, adverse events, ECG monitoring and vital signs assessments were summarized by treatment group and point of time of collection. Descriptive statistics (arithmetic mean, standard deviation, median, minimum and maximum) were calculated for quantitative safety data as well as for the difference to baseline. Frequency counts were compiled for classification of qualitative safety data. In addition, a shift table describing out of normal range shifts was provided for clinical laboratory results. A normal-abnormal shift table was also be presented for physical exam results and ECGs.
Concomitant medications and medical history were listed by treatment.

[2] = Phase Ib twice daily oral dose study, safety and tolerability; format: in vivo, healthy volunteers (human)
Experimental: Study Design and Duration. […] Subjects were housed in the treatment facility from 14 hours prior to dosing until 24 hours after dosing. Meals were controlled by schedule and subjects remained abulatory for 4 hours post drug administration
as §1
WBC α-GAL A Enzymatic Activity Sampling. Blood samples (10 mL each) were collected in blood collection tubes containing EDTA and WBC extracted before dosing and at the following times thereafter: 100 hours, 150 hours, and 336 hours. Samples were treated as described above, and WBC α-Gal A enzymatic activity levels were determined as described in Desnick, R. J. (ed) Enzyme therapy in genetic diseases. Vol 2. Alan R Liss, New York, pp 17-32. Statistical Analysis. Safety data including laboratory evaluations, physical exams, adverse events, ECG monitoring and vital signs assessments were summarized by treatment group and point of time of collection. Descriptive statistics (arithmetic mean, standard deviation, median, minimum and maximum) were calculated for quantitative safety data as well as for the difference to baseline. Frequency counts were compiled for classification of qualitative safety data. In addition, a shift table describing out of normal range shifts was provided for clinical laboratory results. A normal-abnormal shift table was also presented for physical exam results and ECGs. […]

α-Gal A [3] = assay: Phase II study in Fabry patients, α-Gal A activity in white blood cells; format: in vivo, Fabry patients (human)
Experimental: Study Design. A two-arm design was planned. […] In the second arm, escalating doses of 25, 100, and then 250 mg b.i.d. over 6 weeks, followed by 50 mg/day for the remainder of the study.
α-Gal A activity. In addition, α-Gal A activity will be assessed in fractionated tissue obtained from biopsies and in blood leukocytes and plasma (from blood collected at baseline and every month).
α-Gal A Activity. […] Eight patients in the study received an acending dose of 25, 100, and then 250 mg b.i.d. over 6 weeks, followed by 50 mg/day for the remainder of the study (represented on FIG. 2 by closed circles). For purposes of calculating the percentage of normal in the table, the level of α-GAL that is normal was derived by using the average of the levels of α-GAL in white blood cells of 15 healthy volunteers from the multiple-dose Phase I study.

[4] = target: T1, human mutant α-Gal A (R301Q) (Homo sapiens, UniProt P06280, R301Q); conditions: neutral pH; cited from earlier work
T1 construct: Tissue lysates were prepared by homogenizing about 50 mg tissue in assay buffer; from tissue; host or cells: heart, kidney, skin, liver and spleen of R301Q Tg/KO mice (human transgene, mouse α-Gal A knocked out)
T1 sequence (P06280 32-429 R301Q): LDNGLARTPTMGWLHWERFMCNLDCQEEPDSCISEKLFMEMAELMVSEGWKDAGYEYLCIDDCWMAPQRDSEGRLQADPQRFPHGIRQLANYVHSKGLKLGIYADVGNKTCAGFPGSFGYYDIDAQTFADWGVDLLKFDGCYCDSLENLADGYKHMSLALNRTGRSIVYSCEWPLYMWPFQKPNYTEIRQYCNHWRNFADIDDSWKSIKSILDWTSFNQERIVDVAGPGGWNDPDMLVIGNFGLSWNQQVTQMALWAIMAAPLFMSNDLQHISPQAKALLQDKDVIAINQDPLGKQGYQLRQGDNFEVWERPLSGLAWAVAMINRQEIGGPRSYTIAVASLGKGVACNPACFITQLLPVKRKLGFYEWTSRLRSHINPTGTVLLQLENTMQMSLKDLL

α-Gal A [5] = assay: Plasma concentration at which enzyme activity enhancement is seen (clinical and preclinical studies); format: in vivo; conditions: clinical studies and preclinical studies in mice
GL-3 = assay: Phase II study in Fabry patients, GL-3 levels (kidney, skin, urine, plasma); format: in vivo, Fabry patients (human)
Experimental: Study Design. A two-arm design was planned. In one arm, eligible patients were given 150 mg of DGJ-HCl every other day for 12 weeks, with an extension up to 48 weeks. In the second arm, escalating doses of 25, 100, and then 250 mg b.i.d. over 6 weeks, followed by 50 mg/day for the remainder of the study.
GL-3 deposits. Skin, kidney and heart biopsies will be performed at baseline, 3 months and six months and evaluated for GL-3 deposits in skin fibroblasts, cardiac myocytes, and various renal cells.
GL-3 levels. […] Urine and plasma GL-3 levels at baseline and after treatment as assessed by liquid chromatography mass spectrometry were available for 10 patients. […] For the few patients that had elevated levels of GL-3 in urine or plasma at baseline, the results were difficult to interpret due to high intra-patient variability.
Skin GL-3 levels at baseline and after treatment as assessed by light and electron microscopy are available for 10 patients.

mutant (R301Q) α-Gal A = target: T2, mutant (R301Q) α-Gal A (Homo sapiens, UniProt P06280, R301Q); conditions: oral administration; cited from earlier work
T2 construct: host or cells: major organs of transgenic mice overexpressing R301Q α-Gal A
T2 sequence (P06280 32-429 R301Q): T1 sequence (P06280 32-429 R301Q)

Question: What does the source list for `OCC1NCC(O)C(O)C1O` (stereo not drawn) [DGJ, 1-deoxygalactonojirimycin]?
Answer: safety and tolerability [1]: safe and well tolerated; adverse events (AEs) ([2]; after 50 mg b.i.d. or 150 mg b.i.d.): no subject presented with AEs; safety and tolerability ([2]; healthy male subjects, 50 mg b.i.d. and 150 mg b.i.d., seven days): safe and well tolerated; enzyme activity at the lowest dose evaluated (α-Gal A [3]; 25 mg b.i.d., Fabry patients): increased enzyme activity; restoration of α-Gal A activity levels by titration (α-Gal A [3]; as measured in white blood cells): to the normal range; enzyme activity after dose reduction (α-Gal A [3]; dose reduced after 6 weeks to 50 mg/day): remains elevated; patients with an increase in the activity of the enzyme deficient in Fabry disease (α-Gal A [3]; first eleven patients treated for at least 12 weeks, white blood cells): 10 of the 11; in vitro stability of mutant α-Gal A [4]: effectively increased; plasma concentration at which the pharmacological effect (enzyme activity enhancement) is seen (α-Gal A [5]): approximately 0.4 μM; kidney GL-3 by electron microscopy, one patient (GL-3; 12 weeks of treatment, mesangial cells, glomerular endothelium, distal tubules): observed decrease in GL-3; kidney GL-3 by electron microscopy, second patient (GL-3; 24 weeks of treatment, same kidney cell types, not independently conclusive (lower baseline GL-3)): showed a decrease of GL-3 levels; GL-3 in other kidney cell types including interstitial capillaries (GL-3; both patients): the decreases were not significant; urine and plasma GL-3 levels by liquid chromatography mass spectrometry (GL-3; most of 10 patients, baseline and after treatment): normal or near normal both before and after treatment; skin GL-3 levels by light and electron microscopy (GL-3; seven of 10 patients, baseline and after treatment): normal or near normal both before and after treatment; enzyme activity in major organs (mutant (R301Q) α-Gal A): substantially elevated
